Test results published in publication PMC11530802, “Evolution, structure, and drug-metabolizing activity of mammalian prenylcysteine oxidases” (The Journal of Biological Chemistry, 2024).

Target: T1, PCYOX1 (mammalian ancestor)
T1 construct: mammalian ancestor's PCYOX1 (26-502), without signal peptide, six histidine N-terminal tag
Assay: microscale thermophoresis; GC-MS detection of farnesal
Assay type: binding, synthetic construct

## CC(C)=CCC/C(C)=C/CC/C(C)=C/CSc1ccccc1C(=O)O [salirasib]
  Kd: 12 ± 0.2 µM
